Results on 3 compounds are retold here after patent publication US9284531B2, “Differentiation of human pluripotent stem cells into cells expressing mature hepatocyte markers by 2D and bioreactor culture” (Takara Bio Europe AB, priority 2009, dated 2016).

The subject of one series is CYP3A4. The experiment in a line: CYP P450 activity test in bioreactor cultures (midazolam to 1'OH midazolam). Particulars: both bioreactors HepDiff-1 and HepDiff-2, days 40 and 47, 3 μM at start. As for the experimental part: (§1) Bioreactor cultures that were treated with the hepatic differentiation protocol were tested or their ability to metabolize phenacetin, diclophenac and midazolam via the phase I cytochrome (CYP) P450 enzymes CYP1A2, CYP2C9 and CYP3A4, respectively. At days 40 and 47 after inoculation of the cells a CYP P450 activity test was performed according to the scheme:
(§2) For this purpose, fresh medium inflow and medium outflow was closed and a cocktail of the test substances was injected into the recirculating medium to get the following concentrations at the beginning of the test: 3 μM Midazolam, 9 μM Diclophenac and 26 μM Phenacetin. During the next 24 hours, the bioreactor was operated in recirculation mode (no fresh medium was added and only the medium recirculation pump recirculates the medium). Samples from the recirculation were taken before starting the experiment and after 1, 4, 8 and 24 hours and analyzed for the metabolites of the test substances by liquid chromatography/mass spectrometry (LC/MS). Analyses were performed at Astrazeneca AB, Gothenburg, Sweden. After the last sample was taken the bioreactor was flushed with fresh medium in single pass mode with two times the volume of the bioreactor and tubing system and then switched to the normal perfusion mode recirculation with fresh medium inflow). […]

Another series relates to CYP1A2. The experiment in a line: CYP P450 activity test in bioreactor cultures (phenacetin to acetaminophen). The class given is in vitro ADME, human. Particulars: bioreactors HepDiff-1 and HepDiff-2, hESC-derived cells, 26 μM at start, 24 h recirculation, LC/MS. The procedure: as §1, §2
For another series, the system named is HFF. Description: HFF feeder cell experiments in 2D cultures and bioreactors (activin A production, proliferation). The class given is cell-based, human. As for the experimental part:
The metabolic activity and differentiation of the cells inside the bioreactors were characterized on a daily basis by measuring soluble factors in the medium outflow and in the recirculating medium. The following parameters were measured using automated clinical chemistry analyzers (Roche Diagnostics, Heidelberg, Germany): α-fetoprotein (AFP), alkaline phosphatase (AP), alanine transaminase (ALT), aspartate transaminase (AST), beta-human chorionic gonadotropin (β-hCG), c-peptide, carcinoembryonic antigen (CEA), cytokeratin fragment 19 (Cyfra 21-1), erythropoetin, estradiol, follicle stimulating hormone (FSH), factors II-V-X-XIII, fibrinogen, gamma-glutamyltransferase (GGT), glucose, lactate, lactate dehydrogenase (LDH), luteinizing hormone, neuronspecific enolase (NSE), osmolality, osteocalcin, pseudocholinesterase (PCHE), prealbumin progesterone, prolactin, S-100, thyroid-stimulating hormone (TSH), tissue plasminogen activator (TPA), transferrin (for a detailed description of the measurement methods see Table 8 in appendix). Additionally glutamine, glutamate, glucose, lactate, ammonium, pH, sodium (Na+), potassium (K+) were measured with a BioProfile 100 Plus device (Nova Biomedical, Waltham, Mass., USA). Activin A, insulin and albumin were measured with enzyme-linked immunosorbent assays (ELISAs) following the manufacturer's recommendations (activin A using products DY338, DY999, DY994, DY995 from R&D Systems, Wiesbaden-Nordenstadt, Germany; insulin using an ELISA from Invitrogen; albumin using an ELISA from Albuwell, Exocell Inc., Philadelphia, Pa., USA). Urea was measured using a colorimetric determination kit (QuantiChrom, BioAssay Systems, Hayward, Calif., USA). Galactose and sorbitol concentrations were measured by enzymatic assays (Roche Diagnostics).
The pluripotency supporting activity of the HFF could be correlated with their production of activin A. To further examine the behaviour of the HFF feeder cells several experiments only with HFF were carried out in 2D cultures and in two bioreactors.
In one experiment, the bioreactor is inoculated with active HFF that will be cultured in medium supplemented with serum and bFGF to stimulate HFF proliferation. Increase of the cell number is monitored by the levels of glucose consumption and lactate production. When a sufficient cell number is reached culture medium is changed to hBS medium for conditioning. Optimal medium exchange rates have to be determined for example measuring activin A and glucose concentrations in the conditioned medium as quality control parameters. A low glucose level might indicate the demand for increasing the medium feed rate and a low activin A level might be a sign for insufficient conditioning unsuitable to promote hESC pluripotency.

As to `Cc1ncc2n1-c1ccc(Cl)cc1C(c1ccccc1F)=NC2` [midazolam, Midazolam], the metabolism of midazolam entry in the series with CYP3A4 is “no metabolism”.
As for `CCOc1ccc(NC(C)=O)cc1` [phenacetin, Phenacetin], in the series on CYP1A2, the “metabolism of phenacetin by CYP1A1/1A2” value is on record as “Significant metabolism”.
For the compound basic fibroblast growth factor [bFGF], the “mitogenic effect on HFF” value with HFF (bioreactor experiment HFF-2, medium supplemented with serum replacement) is “not observed”. The “activin A production by HFF” value in the series with HFF (medium containing serum replacer) was “stimulated”; with HFF (medium supplemented with serum) it was “did not stimulate”. Besides, in the series with HFF (medium supplemented with serum, 2D and bioreactor experiment HFF-1), the “mitogenic effect on active HFF” value is “strong mitogenic effect”.
